The text below walks through data of US20260048047A1, “SMALL-MOLECULE ACTIVATORS OF MYCOBACTERIUM TUBERCULOSIS ADENYLYL CYCLASE” (priority 2022, published 2026).

The test system of one assay is M. tuberculosis. Briefly: Extracellular activity against M. tuberculosis in cholesterol media (Alamar Blue reduction assay). It is filed as cell-based, Mycobacterium tuberculosis.
The next assay concerns Rv1625c. It is filed as cell-based, Mycobacterium tuberculosis.

For `Cc1nonc1CC(=O)N1CCC(n2nnc(-c3ccc(F)cc3)n2)CC1` [Compound V-59, 1-(4-(5-(4-fluorophenyl)-2H-tetrazol-2-yl)piperidin-1-yl)-2-(4-methyl-1,2,5-oxadiazol-3-yl)ethan-1-one], the “Inhibition of ΔRv1625c strain in cholesterol media” value in the assay with M. tuberculosis is listed as “refractory”. Moreover, in the assay with M. tuberculosis (2×rv1625c vs WT, 7H12+cholesterol), the “Fold greater susceptibility of rv1625c overexpression strain (2×rv1625c) than WT” value is given as about 15 fold. The “cAMP induction in ΔRv1625c mutant” value in the assay on Rv1625c is on record as “did not affect”.

Regarding `Cn1ncnc1CC(=O)N1CCC(c2nc(-c3ccc(Cl)c(Cl)c3)no2)CC1` [mCLB073, 1-(4-(3-(3,4-dichlorophenyl)-1,2,4-oxadiazol-5-yl)-1-piperidinyl)-2-(2-methyl-2H-1,2,4-triazol-3-yl)-1-ethanone], the “Inhibition of ΔRv1625c strain in cholesterol media” value with M. tuberculosis is listed as “refractory”.
